Where “and” joins values, the source holds several entries; their conditions need not be identical. Equal entries are not always repeated.
Legend:
Type in all cases: in vivo
Ephilobium hirsutum = assay: Post-emergence herbicidal action against Ephilobium hirsutum; conditions: 100 g of a.i./ha
Experimental: (§1) When the observed efficacies exceed the formal sum total of the values of the tests with individual applications, they also exceed the expected value according to Colby, which is calculated using the formula below and is likewise regarded as an indication of synergism (cf. S. R. Colby; in Weeds 15 (1967) p. 20 to 22): E^C=A+B−([…])
(§2) Here: • A=efficacy of the active compound (A) in % at an application rate of a g a.i./ha; • B=efficacy of the active compound (B) in % at an application rate of b g a.i./ha; • E^C=expected value of the effect of the combination (A)+(B) in % at the combined application rate a+b g a.i./ha.
Seeds or rhizome pieces of mono- and dicotyledonous weeds are placed in sandy loam in pots, covered with soil and grown in a greenhouse under good growth conditions (temperature, air humidity, water supply). Three weeks after sowing, the test plants were treated at the three-leaf stage with the compositions according to the invention. The compositions according to the invention formulated as spray powders or as emulsion concentrates were sprayed onto the green plant parts in various dosages with an application rate of 300 to 800 l/ha of water (equivalent). After the test plants have been left to stand in the greenhouse under optimal growth conditions for about 3 to 4 weeks, the action of the preparations is scored visually in comparison to untreated controls. […]

Ranunculus repens = assay: Post-emergence herbicidal action against Ranunculus repens; conditions: 100 g of a.i./ha
Experimental: as §1, §2
(§3) Seeds or rhizome pieces of mono- and dicotyledonous weeds are placed in sandy loam in pots, covered with soil and grown in a greenhouse under good growth conditions (temperature, air humidity, water supply). Three weeks after sowing, the test plants were treated at the three-leaf stage with the compositions according to the invention. The compositions according to the invention formulated as spray powders or as emulsion concentrates were sprayed onto the green plant parts in various dosages with an application rate of 300 to 800 l/ha of water (equivalent). […] The compositions according to the invention also have good post-emergence herbicidal activity against a broad spectrum of economically important gramineous and broadleaf weeds.

Viola arvensis = assay: Post-emergence herbicidal action against Viola arvensis; conditions: 100 g of a.i./ha
Experimental: as §1, §2, §3

Bidens pilosa = assay: Post-emergence herbicidal action against Bidens pilosa
In short: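 Post-emergence foliar application: sandy-loam pots, greenhouse, treatment at three-leaf stage, 300–800 l/ha spray volume. Readout is visual % effect at 3–4 weeks, compared with the Colby expected value for mixtures.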

Lolium rigidum [1] = assay: Post-emergence herbicidal action against Lolium rigidum
In short: (§4)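 Assessment time was recorded as days after application. Activity for mixtures was set against E^C, the Colby expected value, and against E^A, the total of the effects from each component applied alone; application rates were in g of active substance per hectare.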

Alopecurus myosuroides [2] = assay: Post-emergence herbicidal action against Alopecurus myosuroides
Phalaris minor [3] = assay: Post-emergence herbicidal action against Phalaris minor
Kochia scoparia = assay: Post-emergence herbicidal action against Kochia scoparia; conditions: 1.7 g of a.i./ha
In short: as §4

Alopecurus myosuroides [4] = assay: Post-emergence herbicidal action against Alopecurus myosuroides; remark: listed apart in the source
In short: as §4

Brachiaria plantaginea = assay: Post-emergence herbicidal action against Brachiaria plantaginea
Excerpt: (§5) The following abbreviations are used in the description and the tables that follow: • g of a.i./ha=grams of active substance (active ingredient) (=100% active compound) per hectare; • The sum total of the effects of the individual applications is reported under E^A; • expected values according to Colby are each reported under E^C.
(§6) The rating period is reported in days after application (DAT).

Phalaris minor [5] = assay: Post-emergence herbicidal action against Phalaris minor; remark: listed apart in the source
Veronica hederifolia = assay: Post-emergence herbicidal action against Veronica hederifolia
In short: as §4

Viola tricolor = assay: Post-emergence herbicidal action against Viola tricolor
Phalaris minor [6] = assay: Post-emergence herbicidal action against Phalaris minor; remark: listed apart in the source
Brachiaria decumbens = assay: Post-emergence herbicidal action against Brachiaria decumbens; conditions: g of a.i./ha: 200, 100, 100 + 200
Excerpt: as §5, §6

Lolium rigidum [7] = assay: Post-emergence herbicidal action against Lolium rigidum; remark: listed apart in the source
Abutilon theophrasti = assay: Post-emergence herbicidal action against Abutilon theophrasti; conditions: 100 g of a.i./ha
Ipomoea ssp. = assay: Post-emergence herbicidal action against Ipomoea ssp.; conditions: 45 DAT
Alopecurus myosuroides [8] = assay: Post-emergence herbicidal action against Alopecurus myosuroides; remark: listed apart in the source

With `C=C[C@]1(C(=O)N[C@H]2CO[C@@H](C(=O)OC)C2)CC(c2cc(F)cc(F)c2)=NO1` (relative stereo) [Compound A3, methyl rel-(2R,4R)-4-[[(5S)-3-(3,5-difluorophenyl)-5-vinyl-4H-isoxazole-5-carbonyl]amino]tetrahydrofuran-2-carboxylate] the “Herbicidal action 43 DAT [%] against Ephilobium hirsutum” value (Ephilobium hirsutum) was 77%, the “Herbicidal action 43 DAT [%] against Ranunculus repens” value (Ranunculus repens) was 82% and the “Herbicidal action 43 DAT [%] against Viola arvensis” value (Viola arvensis) was 50%. For the same compound, the “Herbicidal action 21 DAT [%] against Bidens pilosa” value (“Herbicidal action 21 DAT [%]” for short) (Bidens pilosa; 1.7 g of a.i./ha) was 10% and 0%, the “Herbicidal action 21 DAT against Bidens pilosa” value (Bidens pilosa; 1.7 g of a.i./ha) was 10% and the “Herbicidal action 21 DAT [%]” value (Bidens pilosa; 1.7 g of a.i./ha, post-emergence, block with (B1.14) Tembotrione) was 10%. The “Herbicidal action 21 DAT [%]” value (Bidens pilosa; 1.7 g of a.i./ha, post-emergence, block with (B1.7) Mesotrione) was 0%, the “Herbicidal action 21 DAT [%]” value (Bidens pilosa; 5 g of a.i./ha) was 10% and the “Herbicidal action 21 DAT against Bidens pilosa” value (Bidens pilosa; 5 g of a.i./ha) was 10%. For the same compound, the “Herbicidal action 21 DAT [%]” value (Bidens pilosa; 5 g of a.i./ha, post-emergence, block with (B1.14) Tembotrione) was 10%, the “Herbicidal action 21 DAT [%]” value (Bidens pilosa; 5 g of a.i./ha, post-emergence, block with (B1.7) Mesotrione) was 10% and the “Herbicidal action 21 DAT [%]” value (Bidens pilosa; 15 g of a.i./ha) was 50%. For the same compound, the “Herbicidal action 21 DAT [%]” value (Bidens pilosa; 15 g of a.i./ha, post-emergence, block with (B1.7) Mesotrione) was 25%, the Herbicidal action (Bidens pilosa; 21 DAT, 1.7 g a.i./ha) was 10% and the Herbicidal action (Bidens pilosa; 21 DAT, 5 g a.i./ha) was 10%. The “Herbicidal action 21 DAT [%]” value (Bidens pilosa; post-emergence, 21 DAT, 1.7 g of a.i./ha) was 0%, the “Herbicidal action 21 DAT [%]” value (Bidens pilosa; post-emergence, 21 DAT, 5 g of a.i./ha) was 10% and the “Herbicidal action 21 DAT [%]” value (Bidens pilosa; post-emergence, 21 DAT, 15 g of a.i./ha) was 25%. For the same compound, the “Herbicidal action 14 DAT against Lolium rigidum” value (Lolium rigidum [1]; 1 g of a.i./ha) was 35%, the “Herbicidal action 28 DAT against Lolium rigidum” value (Lolium rigidum [1]; 1 g of a.i./ha) was 15% and the “Herbicidal action 28 DAT against Lolium rigidum” value (Lolium rigidum [1]; 4 g of a.i./ha) was 50%. The “Herbicidal action in [%] 14 DAT against Lolium rigidum” value (Lolium rigidum [1]; 1 g of a.i./ha) was 40%, the “Herbicidal action in [%] 14 DAT against Lolium rigidum” value (Lolium rigidum [1]; 4 g of a.i./ha) was 85% and the “Herbicidal action in [%] 28 DAT against Lolium rigidum” value (Lolium rigidum [1]; 1 g of a.i./ha) was 10%. The “Herbicidal action in [%] 28 DAT against Lolium rigidum” value (Lolium rigidum [1]; 4 g of a.i./ha) was 70%, the “Herbicidal action 14 DAT against Lolium rigidum” value (Lolium rigidum [1]; (Z61) post-emergence, g of a.i./ha: 1, 270, 90, 30, 1 + 270, 1 + 90, 1 + 30) was 35% and the “Herbicidal action in [%] 14 DAT against Alopecurus myosuroides” value (Alopecurus myosuroides [2]; 1 g of a.i./ha) was 15% and 30%. For the same compound, the “Herbicidal action in [%] 28 DAT against Alopecurus myosuroides” value (Alopecurus myosuroides [2]; 1 g of a.i./ha) was 15% and 10%, the “Herbicidal action in [%] 14 DAT against Alopecurus myosuroides” value (Alopecurus myosuroides [2]; 1 g of a.i./ha, second 14 DAT block) was 35% and the “Herbicidal action in [%] 14 DAT against Alopecurus myosuroides” value (Alopecurus myosuroides [2]; 4 g of a.i./ha) was 90% and 75%. The “Herbicidal action in [%] 28 DAT against Alopecurus myosuroides” value (Alopecurus myosuroides [2]; 4 g of a.i./ha) was 50% and 60%, the “Herbicidal action in [%] 28 DAT against Alopecurus myosuroides” value (Alopecurus myosuroides [2]; 16 g of a.i./ha) was 90% and the “Herbicidal action against Phalaris minor” value (Phalaris minor [3]; 14 DAT, 1 g of a.i./ha) was 10%. For the same compound, the “Herbicidal action against Phalaris minor” value (Phalaris minor [3]; 14 DAT, 4 g of a.i./ha) was 90%, the “Herbicidal action against Phalaris minor” value (Phalaris minor [3]; 14 DAT, 16 g of a.i./ha) was 85% and the “Herbicidal action against Phalaris minor” value (Phalaris minor [3]; 28 DAT, 1 g of a.i./ha) was 0%. The “Herbicidal action against Phalaris minor” value (Phalaris minor [3]; 28 DAT, 4 g of a.i./ha) was 70%, the “Herbicidal action against Phalaris minor” value (Phalaris minor [3]; 28 DAT, 16 g of a.i./ha) was 40% and the “Herbicidal action 21 DAT against Kochia scoparia” value (Kochia scoparia) was 30%. For the same compound, the “Herbicidal action 14 DAT against Alopecurus myosuroides” value (Alopecurus myosuroides [4]; 1 g of a.i./ha) was 15%, the “Herbicidal action 28 DAT against Alopecurus myosuroides” value (Alopecurus myosuroides [4]; 1 g of a.i./ha) was 15% and the “Herbicidal action 28 DAT against Alopecurus myosuroides” value (Alopecurus myosuroides [4]; 4 g of a.i./ha) was 50% and 60%. The “Herbicidal action in [%] 14 DAT against Alopecurus myosuroides” value (Alopecurus myosuroides [4]; 1 g of a.i./ha) was 30%, the “Herbicidal action in [%] 14 DAT against Alopecurus myosuroides” value (Alopecurus myosuroides [4]; 4 g of a.i./ha) was 75% and the “Herbicidal action in [%] 28 DAT against Alopecurus myosuroides” value (Alopecurus myosuroides [4]; 1 g of a.i./ha) was 10%. For the same compound, the “Herbicidal action in [%] 28 DAT against Alopecurus myosuroides” value (Alopecurus myosuroides [4]; 4 g of a.i./ha) was 60%, the “Herbicidal action 28 DAT [%] against Brachiaria plantaginea” value (Brachiaria plantaginea; 100 g of a.i./ha) was 82% and the “Herbicidal action 28 DAT against Brachiaria plantaginea” value (Brachiaria plantaginea; (Z61) post-emergence, g of a.i./ha: 200, 100, 100 + 200) was 82%. The “Herbicidal action 28 DAT against Brachiaria plantaginea” value (Brachiaria plantaginea; A3/Asulam, post-emergence, g of a.i./ha by row: 720, 100, 100 + 720) was 82%, the “Herbicidal action in [%] 14 DAT against Phalaris minor” value (Phalaris minor [5]; 1 g of a.i./ha) was 10% and 20% and the “Herbicidal action in [%] 28 DAT against Phalaris minor” value (Phalaris minor [5]; 1 g of a.i./ha) was 0% and 10%. For the same compound, the “Herbicidal action in [%] 14 DAT against Phalaris minor” value (Phalaris minor [5]; 4 g of a.i./ha) was 90% and 85%, the “Herbicidal action in [%] 28 DAT against Phalaris minor” value (Phalaris minor [5]; 4 g of a.i./ha) was 70% and the “Herbicidal action in [%] 14 DAT against Phalaris minor” value (Phalaris minor [5]; 16 g of a.i./ha) was 85%. The “Herbicidal action in [%] 14 DAT against Veronica hederifolia” value (Veronica hederifolia; 1 g of a.i./ha) was 10%, the “Herbicidal action in [%] 14 DAT against Veronica hederifolia” value (Veronica hederifolia; 4 g of a.i./ha) was 30% and the “Herbicidal action 14 DAT against Veronica hederifolia” value (Veronica hederifolia; 16 g of a.i./ha) was 40%. For the same compound, the “Herbicidal action 14 DAT against Veronica hederifolia” value (Veronica hederifolia; g of a.i./ha: 16, 270, 16 + 270) was 40%, the “Herbicidal action in [%] 14 DAT against Viola tricolor” value (Viola tricolor; 1 g of a.i./ha) was 50% and the “Herbicidal action in [%] 28 DAT against Viola tricolor” value (Viola tricolor; 1 g of a.i./ha) was 15%. For the same compound, the “Herbicidal action in [%] 28 DAT against Viola tricolor” value (Viola tricolor; 4 g of a.i./ha) was 30%, the Herbicidal action (Phalaris minor [6]; 14 DAT, 1 g a.i./ha) was 20% and the Herbicidal action (Phalaris minor [6]; 14 DAT, 4 g a.i./ha) was 85%. For the same compound, the Herbicidal action (Phalaris minor [6]; 14 DAT, 16 g a.i./ha) was 85%, the Herbicidal action (Phalaris minor [6]; 28 DAT, 1 g a.i./ha) was 10% and the Herbicidal action (Phalaris minor [6]; 28 DAT, 4 g a.i./ha) was 85%. The Herbicidal action (Phalaris minor [6]; 28 DAT, 16 g a.i./ha) was 85%, the “Herbicidal action 28 DAT against Brachiaria decumbens” value (Brachiaria decumbens) was 87% and the “Herbicidal action against Lolium rigidum” value (Lolium rigidum [7]; 14 DAT, 1 g of a.i./ha) was 35%. The “Herbicidal action against Lolium rigidum” value (Lolium rigidum [7]; 28 DAT, 1 g of a.i./ha) was 15%, the “Herbicidal action against Lolium rigidum” value (Lolium rigidum [7]; 28 DAT, 4 g of a.i./ha) was 50% and the “Herbicidal action 37 DAT [%] against Abutilon theophrasti” value (Abutilon theophrasti) was 75%. It also gave a Herbicidal action (Ipomoea ssp.; 50 g a.i./ha) of 40%, a Herbicidal action (Ipomoea ssp.; 100 g a.i./ha) of 50% and a Herbicidal action (Alopecurus myosuroides [8]; 14 DAT, 1 g a.i./ha) of 30%. It also gave a Herbicidal action (Alopecurus myosuroides [8]; 14 DAT, 4 g a.i./ha) of 75%, a Herbicidal action (Alopecurus myosuroides [8]; 28 DAT, 1 g a.i./ha) of 10% and a Herbicidal action (Alopecurus myosuroides [8]; 28 DAT, 4 g a.i./ha) of 60%.

— US12171230B2, “Herbicidal compositions” (Bayer Aktiengesellschaft, priority 2018, dated 2024)
